Experimental data from patent US20140243243A1, “DEVICE AND METHOD FOR CELL-EXCLUSION PATTERNING” (Corning Incorporated, priority 2012, published 2014).

Test system: cells growing in a cell-exclusion patterned cell culture
Experiment: Cell-exclusion patterned cell culture in the presence and absence of a drug (cell proliferation and migration)
Type: cell-based
Details: uncoated well bottoms; micrographs pretreatment (t=0 h), after 14 h and 40 h of treatment; FIG. 11
Method: Cell-exclusion patterning was carried out by a sequence of steps, as illustrated in FIG. 3. In Step A, complete medium was added to wells of a microtiter plate. The volume added was approximately 30 ul for 384-well plates or 75 ul for 96-well plates. In step B, a comb having guide pins and blocking pins was lowered into the microtiter plate and the blocking pins were locked into the desired wells and the guide pins into the corresponding guide holes. In step C, cells were introduced into the wells of the microtiter plate by adding a solution containing cells to the walls of the wells. The volume of the cell solution was approximately 20 ul for 384-well plates or 25-50 ul for 96-well plates. The cell density was 8000 cells per well and 30,000 cells per well for 384- and 96-well plates, respectively. In step D, the cells were allowed to settle and adhere to the well bottom inside a cell culture hood for about 45 min. The microplates were then placed inside a humidified incubator at 37° C. and 5% CO2 for 3-4 h to allow the cells to attach to the well bottom. In step E, the comb and the pins were removed from the wells. Drugs were then added, if necessary to carry out an assay.
Cell patterns were imaged by bright-field or fluorescent microscopy or by using Corning Epic® label-free high-resolution optical resonance detection system (available from Corning Incorporated, Corning, N.Y.). […]

Compound: C=C1[C@@H](C)[C@H]2[C@H](Cc3ccccc3)NC(=O)[C@]23[C@H](OC(C)=O)/C=C/[C@@](C)(O)C(=O)[C@@H](C)C/C=C/[C@H]3[C@@H]1O [CytoD, Cytochalasin D]
- growth of cells into the cell exclusion area over time: cells do not grow into the cell exclusion area over time
